Like-named read-outs stand apart in the source and are kept apart here.
Legend:
[1] = test system: Cullin-3 (CUL3) neddylation; experiment: AlphaLISA assay for Cullin-3 (CUL3) neddylation in TF 1 cells; type: cell-based; details: 3 hours treatment
Summary of the method: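 TF 1 cells in unsupplemented IMDM treated with compound concentrations for 3 h, then lysed. CUL3 neddylation detected by AlphaLISA (biotinylated anti-NEDD8, anti-CUL3 acceptor beads overnight, streptavidin donor beads 1 h); normalized to vehicle (0%) and 1 μM DI-1548 (100%), IC50 from Hill fits.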

[2] = molecular target: DCN1 (DCUND1) protein PONY domain (Homo sapiens (Human), UniProt Q96GG9); experiment: TR-FRET assay, DCN1 binding with FAM-labeled probe
Summary of the method: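 Binding was read as the TR-FRET ratio between a FAM-tagged inhibitor probe and Tb-labeled biotinylated E. coli-expressed DCN1 PONY domain, measured 1, 5 and 24 h after compound addition. The two setups used 5 nM protein/20 nM FAM-probe or 0.31 nM protein/900 nM total probe (100 nM labeled), in TritonX buffer with 200 mM NaCl.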

[3] = 24 hr after treatment with compound, read-out: TR FRET IC50 24 hr
[4] = read-out: TR FRET IC50 1 hr, 1 hr after treatment with compound
[5] = TR FRET IC50 1 hr (nM), 1 hr after treatment with compound

Chain of DCN1 (DCUND1) protein PONY domain (Q96GG9 60-248): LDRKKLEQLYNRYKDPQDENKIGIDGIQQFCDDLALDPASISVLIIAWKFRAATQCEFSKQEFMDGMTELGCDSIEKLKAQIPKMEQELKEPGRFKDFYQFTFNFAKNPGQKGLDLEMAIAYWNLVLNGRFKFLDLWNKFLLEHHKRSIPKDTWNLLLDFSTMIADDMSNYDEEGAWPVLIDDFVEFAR

SMILES	IC50 ([1]; Homo sapiens, TF-1, 3 h) [nM]	IC50 [2, 3] [nM]	IC50 [2, 4] [nM]	IC50 [2, 5] [nM]	IC50 [1] [nM]
CCN1C(=O)[C@@H](NC(=O)c2cccc(C(F)(F)F)c2)[C@@H](C2CC2)c2c(C(=O)N3CCS(=O)(=O)C[C@H]3C#N)nn(C3CCOCC3)c21 (mixture of isomers) [Compound I-379]	≤ 100	≤ 200	≤ 200		
CCN1C(=O)[C@@H](NC(=O)c2cccc(C(F)(F)F)c2)[C@@H](c2ccc(F)cc2)c2c(C(=O)N3CS(=O)(=O)C[C@H]3C#N)nn(C3CCOCC3)c21 (mixture of isomers) [Compound I-661, N-((4S,5S)-3-(4-cyano-1,1-dioxidothiazolidine-3-carbonyl)-7-ethyl-4-(4-fluorophenyl)-6-oxo-1-(tetrahydro-2H-pyran-4-yl)-4,5,6,7-tetrahydro-1H-pyrazolo[3,4-b]pyridin-5-yl)-3-(trifluoromethyl)benzamide]	≤ 100	≤ 200	≤ 200		
CCN1C(=O)[C@@H](NC(=O)c2cccc(C(F)(F)F)c2)[C@@H](c2ccc(F)cc2)c2c(CNC(=O)/C=C/C(=O)OC)nn(-c3ccccc3)c21 (racemic) [Compound I-3]	≤ 100	≤ 200	≤ 200		
C=C(CN1CCC1)C(=O)NCc1nn(-c2ccccc2)c2c1[C@H](c1ccc(F)cc1)[C@H](NC(=O)c1cccc(C(F)(F)F)c1)C(=O)N2CC (racemic) [Compound I-49, rac-N-((4R,5R)-3-((2-(azetidin-1-ylmethyl)acrylamido)methyl)-7-ethyl-4-(4-fluorophenyl)-6-oxo-1-phenyl-4,5,6,7-tetrahydro-1H-pyrazolo[3,4-b]pyridin-5-yl)-3-(trifluoromethyl)benzamide]	≤ 100	≤ 200		≤ 200	
CCN1C(=O)[C@@H](NC(=O)c2cccc(C(F)(F)F)c2)[C@@H](c2ccc(F)cc2)c2c(NC(=O)C3=CCC3)nn(-c3ccccc3)c21 (racemic) [Compound I-152]	100 to 1000	≤ 200	≤ 200		
CCN1C(=O)[C@@H](NC(=O)c2cccc(C(F)(F)F)c2)[C@@H](c2ccc(F)cc2)c2c([C@@H](C)NC#N)nn(-c3ccccc3)c21 [Compound I-73, N-((4S,5S)-3-((R)-1-cyanamidoethyl)-7-ethyl-4-(4-fluorophenyl)-6-oxo-1-phenyl-4,5,6,7-tetrahydro-1H-pyrazolo[3,4-b]pyridin-5-yl)-3-(trifluoromethyl)benzamide]	≤ 100	≤ 200	≤ 200		
CCN1C(=O)[C@@H](NC(=O)c2cccc(C(F)(F)F)c2)[C@@H](c2ccc(F)cc2)c2c(CN(C)C#N)nn(-c3ccccc3)c21 [Compound I-92]	100 to 1000	≤ 200	200 to 1000		
CCN1C(=O)[C@@H](NC(=O)c2cccc(C(F)(F)F)c2)[C@@H](c2ccc(F)cc2)c2c(C(=O)NC3(C#N)CC3)nn(-c3ccccc3)c21 [Compound I-112]	100 to 1000	200 to 1000		1000 to 3000	
C=C(CN1CCC1)C(=O)NCc1nn(-c2ccccc2)c2c1[C@@H](c1ccc(F)cc1)[C@H](NC(=O)c1cccc(C(F)(F)F)c1)C(=O)N2CC [Compound I-139]	≤ 100	≤ 200	≤ 200		
CCN1C(=O)[C@@H](NC(=O)c2cccc(C(F)(F)F)c2)[C@@H](c2ccc(F)cc2)c2c(CNC#N)nn(-c3ccccc3)c21 [Compound I-140, N-[(4S, 5S)-3-[(cyanoamino)methyl]-7-ethyl-4-(4-fluorophenyl)-6-oxo-1-phenyl-4,5-dihydropyrazolo[3,4-b]pyridine-5-yl]-3-(trifluoromethyl) benzamide]	≤ 100	≤ 200	≤ 200		
CCN1C(=O)[C@@H](NC(=O)c2cccc(C(F)(F)F)c2)[C@@H](C2CC2)c2c(C(=O)N3[C@H](C#N)C[C@H]4C[C@H]43)nn(C3CCOCC3)c21 [Compound I-256, N-((4S,5S)-3-((1R,3S,5R)-3-cyano-2-azabicyclo[3.1.0]hexane-2-carbonyl)-4-cyclopropyl-7-ethyl-6-oxo-1-(tetrahydro-2H-pyran-4-yl)-4,5,6,7-tetrahydro-1H-pyrazolo[3,4-b]pyridin-5-yl)-3-(trifluoromethyl)benzamide]	≤ 100	≤ 200	≤ 200		
CCN1C(=O)[C@@H](NC(=O)c2cccc(C(F)(F)F)c2)[C@@H](c2ccc(F)cc2)c2c(C(=O)N3[C@H](C#N)C[C@H]4C[C@H]43)nn(-c3ccccc3)c21 [Compound I-277]	≤ 100	≤ 200	≤ 200		
CCN1C(=O)[C@@H](NC(=O)c2cccc(C(F)(F)F)c2)[C@@H](c2ccc(F)cc2)c2c(C(=O)N3CCC[C@H]3C#N)nn(-c3ccccc3)c21 [Compound I-278]	≤ 100	≤ 200		200 to 1000	
CCN1C(=O)[C@@H](NC(=O)c2cccc(C(F)(F)F)c2)[C@@H](c2ccc(F)cc2)c2c(C(=O)N3CCNCC3C#N)nn(C3CCOCC3)c21 (stereo partly shown) [Compound I-334]	≤ 100	≤ 200	≤ 200		
CCN1C(=O)[C@@H](NC(=O)c2cccc(C(F)(F)F)c2)[C@@H](c2ccc(F)cc2)c2c(C(=O)N3CCC[C@H]3C#N)nn(C3CCOCC3)c21 [Compound I-350]		≤ 200	≤ 200		≤ 100
CCN1C(=O)[C@@H](NC(=O)c2cccc(C(F)(F)F)c2)[C@@H](c2ccc(F)cc2)c2c(C(=O)N3CCNC[C@H]3C#N)nn(C3CCOCC3)c21 [Compound I-363, N-((4S,5S)-3-((S)-2-cyanopiperazine-1-carbonyl)-7-ethyl-4-(4-fluorophenyl)-6-oxo-1-(tetrahydro-2H-pyran-4-yl)-4,5,6,7-tetrahydro-1H-pyrazolo[3,4-b]pyridin-5-yl)-3-(trifluoromethyl)benzamide]	≤ 100	≤ 200	≤ 200		
CCN1C(=O)[C@@H](NC(=O)c2cccc(C(F)(F)F)c2)[C@@H](c2ccc(F)cc2)c2c(C(=O)N(C)[C@@H](C#N)CCN(C)C)nn(C3CCOCC3)c21 [Compound I-369]	≤ 100	≤ 200	≤ 200		
CCN1C(=O)[C@@H](NC(=O)c2cccc(C(F)(F)F)c2)[C@@H](c2ccc(F)cc2)c2c(C(=O)N(C)[C@H](C#N)CCN(C)C)nn(C3CCOCC3)c21 [Compound I-370]	≤ 100	≤ 200	≤ 200		
CCN1C(=O)[C@@H](NC(=O)c2cccc(C(F)(F)F)c2)[C@@H](C2CC2)c2c(C(=O)N3C[C@H](F)C[C@H]3C#N)nn(C3CCOCC3)c21 [Compound I-372]	≤ 100	≤ 200	≤ 200		
CCN1C(=O)[C@@H](NC(=O)c2cccc(C(F)(F)F)c2)[C@@H](C2CC2)c2c(C(=O)N3C[C@H](OC)C[C@H]3C#N)nn(C3CCOCC3)c21 [Compound I-377]	≤ 100	≤ 200	≤ 200		
CCN1C(=O)[C@@H](NC(=O)c2cccc(C(F)(F)F)c2)[C@@H](C2CC2)c2c(C(=O)N3CCNC[C@H]3C#N)nn(-c3ccccc3)c21 [Compound I-383]	≤ 100	≤ 200	≤ 200		
CCN1C(=O)[C@@H](NC(=O)c2cccc(C(F)(F)F)c2)[C@@H](C)c2c(C(=O)N3[C@H](C#N)C[C@H]4C[C@H]43)nn(C3CCOCC3)c21 [Compound I-387]					≤ 100
CCN1C(=O)[C@@H](NC(=O)c2cccc(C(F)(F)F)c2)[C@@H](C2CC2)c2c(C(=O)N3CC[C@H](OC)[C@H]3C#N)nn(C3CCOCC3)c21 [Compound I-418]	≤ 100	≤ 200	≤ 200		
CCN1C(=O)[C@@H](NC(=O)c2cccc(C(F)(F)F)c2)[C@@H](C2CC2)c2c(C(=O)N(C)[C@H](C)C#N)nn(C3CCOCC3)c21 [Compound I-422]	≤ 100	≤ 200	≤ 200		
CCc1cccc(C(=O)N[C@@H]2C(=O)N(CC)c3c(c(C(=O)N4[C@H](C#N)C[C@H]5C[C@H]54)nn3C3CCOCC3)[C@@H]2C2CC2)c1 [Compound I-552, N-((4S,5S)-3-((1R,3S,5R)-3-cyano-2-azabicyclo[3.1.0]hexane-2-carbonyl)-4-cyclopropyl-7-ethyl-6-oxo-1-(tetrahydro-2H-pyran-4-yl)-4,5,6,7-tetrahydro-1H-pyrazolo[3,4-b]pyridin-5-yl)-3-ethylbenzamide]	≤ 100	≤ 200	≤ 200		
CCN1C(=O)[C@@H](NC(=O)c2cccc(C(F)(F)F)c2)[C@@H](C2CC2)c2c(C(=O)N3CCNC[C@H]3C#N)nn(C3CCOCC3)c21 [Compound I-582]	≤ 100	≤ 200	≤ 200		
CCN1C(=O)[C@@H](NC(=O)c2cccc(C(F)(F)F)c2)[C@@H](C2CC2)c2c(C(=O)N3CS(=O)(=O)C[C@H]3C#N)nn(C3CCOCC3)c21 [Compound I-617]	≤ 100	≤ 200	≤ 200		
CCN1C(=O)[C@@H](NC(=O)c2cccc(C(F)(F)F)c2)[C@@H](C2CCC2)c2c(C(=O)N3CCC[C@H]3C#N)nn(C3CCOCC3)c21 [Compound I-692]	≤ 100	≤ 200		200 to 1000	

Source: US20250163057A1, “DCN-1 MODULATING COMPOUNDS AND METHODS OF USE THEREOF” (Cellarity, Inc., priority 2023, published 2025)
